Assay results reported in ChEMBL document CHEMBL5143529, “Design, synthesis, and biological evaluation of novel (4-(1,2,4-oxadiazol-5-yl)phenyl)-2-aminoacetamide derivatives as multifunctional agents for the treatment of Alzheimer's disease” (Eur J Med Chem, 2022).
The source made the active and inactive calls. The rule behind the calls is not given here.

Columns and labels:
Acetylcholinesterase = Acetylcholinesterase (Electrophorus electricus, UniProt O42275); experiment: Inhibition of electric eel AChE using acetylthiocholine iodide as substrate preincubated for 20 mins followed by substrate addition and measured after 5 mins by DTNB-reagent based Ellman's method
Acetylcholinesterase, sequence (O42275 whole entry): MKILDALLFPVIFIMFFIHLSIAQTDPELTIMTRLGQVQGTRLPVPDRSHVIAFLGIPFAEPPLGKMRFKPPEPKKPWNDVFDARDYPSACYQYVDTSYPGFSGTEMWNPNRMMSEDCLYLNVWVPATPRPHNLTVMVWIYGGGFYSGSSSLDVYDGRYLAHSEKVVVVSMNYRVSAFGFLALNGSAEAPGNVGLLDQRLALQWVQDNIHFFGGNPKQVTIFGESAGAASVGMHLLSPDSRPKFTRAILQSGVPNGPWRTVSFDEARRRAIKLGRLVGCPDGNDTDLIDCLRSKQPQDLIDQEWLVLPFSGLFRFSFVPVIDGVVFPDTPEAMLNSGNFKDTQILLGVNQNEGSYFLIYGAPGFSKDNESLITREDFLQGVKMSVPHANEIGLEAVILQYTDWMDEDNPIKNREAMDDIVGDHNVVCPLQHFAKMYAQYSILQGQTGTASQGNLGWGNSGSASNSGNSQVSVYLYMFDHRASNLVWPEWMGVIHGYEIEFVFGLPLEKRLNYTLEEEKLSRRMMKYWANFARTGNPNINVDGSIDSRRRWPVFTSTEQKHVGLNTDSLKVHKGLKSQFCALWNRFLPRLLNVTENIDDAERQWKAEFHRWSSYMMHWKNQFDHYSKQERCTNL

[1] = target: Cholinesterase (Equus caballus) (UniProt P81908); experiment: Mixed type inhibition of equine serum BuChE assessed as decrease in Vmax with increase in Km at 0.5 to 2 uM using varying level of butyrylthiocholine iodide as substrate by Lineweaver-Burk plot double reciprocal analysis; conditions: dose 0.5-2 µM
Cholinesterase (Equus caballus), sequence (P81908 whole entry): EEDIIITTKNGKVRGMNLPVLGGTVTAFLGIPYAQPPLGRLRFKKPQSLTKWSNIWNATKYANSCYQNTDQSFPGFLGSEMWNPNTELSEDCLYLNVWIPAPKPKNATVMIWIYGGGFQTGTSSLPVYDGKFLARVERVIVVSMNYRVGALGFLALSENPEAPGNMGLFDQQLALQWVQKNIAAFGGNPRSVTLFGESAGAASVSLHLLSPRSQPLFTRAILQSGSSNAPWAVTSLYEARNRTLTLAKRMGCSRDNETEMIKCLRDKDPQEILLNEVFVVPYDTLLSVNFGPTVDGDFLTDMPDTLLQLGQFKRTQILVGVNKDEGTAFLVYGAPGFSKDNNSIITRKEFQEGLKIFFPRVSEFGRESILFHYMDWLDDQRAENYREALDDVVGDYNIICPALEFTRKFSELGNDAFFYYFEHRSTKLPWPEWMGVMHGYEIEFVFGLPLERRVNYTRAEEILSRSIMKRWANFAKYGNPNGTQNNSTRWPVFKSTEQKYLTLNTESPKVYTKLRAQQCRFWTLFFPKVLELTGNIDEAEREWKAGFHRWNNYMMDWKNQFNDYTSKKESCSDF

Cholinesterase [2] = target: T1, Cholinesterase (Equus caballus, UniProt P81908); experiment: Mixed type inhibition of equine serum BuChE assessed as inhibition constant using varying level of butyrylthiocholine iodide as substrate by Lineweaver-Burk plot double reciprocal analysis
T1 sequence (P81908 whole entry): as above

PC-12 [3] = experiment: Neuroprotective activity against H202-induced cell death in rat PC-12 cells assessed as cell viability at 5 uM pretreated for 3 hrs followed by H2O2 stimulation and measured after 24 hrs by MTT assay relative to control; format: functional; conditions: time 27 hrs, read-out: Activity
PC-12 [4] = experiment: Neuroprotective activity against H202-induced cell death in rat PC-12 cells assessed as cell viability at 20 uM pretreated for 3 hrs followed by H2O2 stimulation and measured after 24 hrs by MTT assay relative to control; format: functional; conditions: time 27 hrs, read-out: Activity
[5] = Cytotoxicity against rat PC-12 cells assessed as cell viability at 25 uM incubated for 24 hrs by MTT assay relative to control; format: toxicity, cell-based; conditions: read-out: Activity
[6] = Cytotoxicity against rat PC-12 cells assessed as cell viability at 50 uM incubated for 24 hrs by MTT assay relative to control; format: toxicity, cell-based; conditions: read-out: Activity
[7] = target: Amyloid-beta precursor protein (Homo sapiens) (UniProt P05067); experiment: Inhibition of amyloid beta (1 to 42 ) (unknown origin) self aggregation at 100 uM measured after 48 hrs by transmission electron microscopic analysis
Amyloid-beta precursor protein (Homo sapiens), sequence (P05067 whole entry): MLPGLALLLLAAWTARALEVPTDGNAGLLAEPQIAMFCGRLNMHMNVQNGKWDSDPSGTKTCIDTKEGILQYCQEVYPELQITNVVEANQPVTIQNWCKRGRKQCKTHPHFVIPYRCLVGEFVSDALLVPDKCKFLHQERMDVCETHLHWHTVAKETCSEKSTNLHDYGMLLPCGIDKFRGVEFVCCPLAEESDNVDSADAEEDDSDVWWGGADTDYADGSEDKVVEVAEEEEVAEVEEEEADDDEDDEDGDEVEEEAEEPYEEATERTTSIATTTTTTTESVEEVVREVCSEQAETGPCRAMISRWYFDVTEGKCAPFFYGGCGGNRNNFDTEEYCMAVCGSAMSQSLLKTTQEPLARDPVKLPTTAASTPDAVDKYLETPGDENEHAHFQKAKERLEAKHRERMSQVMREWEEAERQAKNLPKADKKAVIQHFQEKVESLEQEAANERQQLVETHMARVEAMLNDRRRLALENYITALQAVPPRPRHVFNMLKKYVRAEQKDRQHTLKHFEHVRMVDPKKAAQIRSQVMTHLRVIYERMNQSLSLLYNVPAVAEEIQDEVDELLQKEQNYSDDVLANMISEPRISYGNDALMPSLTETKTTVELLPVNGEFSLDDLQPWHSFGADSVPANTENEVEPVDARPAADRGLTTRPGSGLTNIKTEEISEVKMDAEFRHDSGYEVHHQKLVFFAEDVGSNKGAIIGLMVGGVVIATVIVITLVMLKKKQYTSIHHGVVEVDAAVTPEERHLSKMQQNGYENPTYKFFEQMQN

[8] = Inhibition of LPS-induced IL-1beta secretion in mouse BV-2 cells preincubated for 1 hr followed by LPS stimulation and measured after 24 hrs by ELISA; format: functional, cell-based
[9] = Inhibition of LPS-induced TNF-alpha secretion in mouse BV-2 cells preincubated for 1 hr followed by LPS stimulation and measured after 24 hrs by ELISA; format: functional, cell-based
BV-2 [10] = experiment: Downregulation of COX-2 protein expression in LPS-stimulated mouse BV-2 cells preincubated for 1 hr followed by LPS stimulation and measured after 24 hrs by Western blot analysis; format: functional, cell-based; conditions: dose 1-10 µM, time 25.0 hrs, DDE = dose-dependent effect
BV-2 [11] = experiment: Downregulation of iNOS protein expression in LPS-stimulated mouse BV-2 cells preincubated for 1 hr followed by LPS stimulation and measured after 24 hrs by Western blot analysis; format: functional, cell-based; conditions: dose 1-10 µM, time 25.0 hrs, DDE = dose-dependent effect
[12] = target: T2, Inhibitor of nuclear factor kappa-B kinase subunit beta (Mus musculus) (UniProt O88351); experiment: Inhibition of IkappaB activation in LPS-stimulated mouse BV-2 cells pretreated for 1 hr followed by LPS stimulation and measured after 24 hrs by Western blot analysis; format: cell-based; conditions: dose 1-10 µM, time 25.0 hrs, DDE = dose-dependent effect
T2 sequence (whole entry): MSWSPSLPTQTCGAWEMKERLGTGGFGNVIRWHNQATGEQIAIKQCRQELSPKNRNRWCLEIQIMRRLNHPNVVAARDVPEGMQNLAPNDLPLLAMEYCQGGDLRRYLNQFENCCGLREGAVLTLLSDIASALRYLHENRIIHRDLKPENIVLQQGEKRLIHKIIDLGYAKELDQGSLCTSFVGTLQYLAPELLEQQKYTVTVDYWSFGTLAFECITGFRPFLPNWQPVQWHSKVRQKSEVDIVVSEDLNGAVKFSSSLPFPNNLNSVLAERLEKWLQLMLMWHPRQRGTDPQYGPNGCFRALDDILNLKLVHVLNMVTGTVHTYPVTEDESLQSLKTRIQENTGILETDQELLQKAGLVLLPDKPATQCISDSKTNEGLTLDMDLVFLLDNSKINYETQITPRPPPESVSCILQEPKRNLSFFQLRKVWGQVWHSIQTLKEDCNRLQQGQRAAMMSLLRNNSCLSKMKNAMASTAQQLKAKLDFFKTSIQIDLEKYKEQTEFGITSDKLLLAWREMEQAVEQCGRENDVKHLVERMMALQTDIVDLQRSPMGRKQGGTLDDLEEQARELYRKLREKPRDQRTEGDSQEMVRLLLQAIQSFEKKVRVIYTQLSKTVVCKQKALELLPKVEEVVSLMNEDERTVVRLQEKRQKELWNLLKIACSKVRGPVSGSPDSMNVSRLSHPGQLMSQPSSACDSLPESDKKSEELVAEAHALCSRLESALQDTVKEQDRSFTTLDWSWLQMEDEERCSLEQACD

[13] = target: T2, Inhibitor of nuclear factor kappa-B kinase subunit beta (Mus musculus); experiment: Inhibition of IkappaB phosphorylation in LPS-stimulated mouse BV-2 cells pretreated for 1 hr followed by LPS stimulation and measured after 24 hrs by Western blot analysis; format: cell-based; conditions: dose 1-10 µM, time 25.0 hrs, DDE = dose-dependent effect
[14] = target: Transcription factor p65 (Mus musculus) (UniProt Q04207); experiment: Inhibition of p65 phosphorylation in LPS-stimulated mouse BV-2 cells at 1 to 10 uM pretreated for 1 hr followed by LPS stimulation and measured after 24 hrs by Western blot analysis; format: cell-based; conditions: dose 1-10 µM, time 25.0 hrs
Transcription factor p65 (Mus musculus), sequence (Q04207 whole entry): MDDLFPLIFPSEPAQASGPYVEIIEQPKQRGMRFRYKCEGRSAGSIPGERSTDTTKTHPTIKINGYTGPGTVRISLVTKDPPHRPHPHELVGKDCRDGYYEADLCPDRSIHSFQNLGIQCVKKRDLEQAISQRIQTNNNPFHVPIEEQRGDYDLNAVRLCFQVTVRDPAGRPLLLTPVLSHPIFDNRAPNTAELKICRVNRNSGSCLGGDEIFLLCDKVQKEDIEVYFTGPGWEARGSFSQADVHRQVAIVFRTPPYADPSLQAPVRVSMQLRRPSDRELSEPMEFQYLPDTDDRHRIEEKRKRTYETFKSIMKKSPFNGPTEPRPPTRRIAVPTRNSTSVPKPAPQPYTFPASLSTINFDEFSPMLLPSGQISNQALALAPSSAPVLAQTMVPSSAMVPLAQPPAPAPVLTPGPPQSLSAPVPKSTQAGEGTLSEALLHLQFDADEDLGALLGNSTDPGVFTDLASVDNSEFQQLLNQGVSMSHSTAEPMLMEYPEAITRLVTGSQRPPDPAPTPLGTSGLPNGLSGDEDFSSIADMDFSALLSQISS

BV-2 [15] = experiment: Inhibition of NF-kappaB in LPS-stimulated mouse BV-2 cells assessed as reduction in translocation of p65 NF-kappaB from cytoplasm to nucleus at 1 to 10 uM pretreated for 1 hr followed by LPS stimulation and measured after 24 hrs; format: cell-based; conditions: dose 1-10 µM, time 25.0 hrs
PC-12 [16] = experiment: Inhibition of H2O2-induced ROS production in rat PC-12 cells assessed as reduction in ROS accumulation at 1 to 50 uM pretreated for 6 hrs followed by H2O2 stimulation and measured after 18 hrs by DCFH-DA staining based fluorescence assay; format: functional, cell-based; conditions: dose 1-50 µM, time 24.0 hrs
SH-SY5Y = experiment: Inhibition of H2O2-induced ROS production in human SH-SY5Y cells assessed as reduction in ROS accumulation at 1 to 50 uM pretreated for 6 hrs followed by H2O2 stimulation and measured after 18 hrs by DCFH-DA staining based fluorescence assay; format: functional, cell-based; conditions: dose 1-50 µM, time 24.0 hrs
[17] = Antioxidant activity assessed as DPPH radical scavenging activity at 10 uM incubated for 2 hrs under dark condition by microplate reader method relative to control; format: functional
[18] = Antioxidant activity assessed as DPPH radical scavenging activity at 1000 uM incubated for 2 hrs under dark condition by microplate reader method relative to control; format: functional
[19] = Metal chelating activity assessed as Cu2+-compound complex formation by measuring reduction in maximum absorbance intensity at 20 uM incubated for 1 hr by UV-visible spectrophotometry
[20] = Toxicity in C57BL/6 mouse assessed as median lethal dose administered intragastrically for 7 days; conditions: in vivo, po, time 7 day
[21] = Toxicity in C57BL/6 mouse assessed as abnormal fluctuations in body weight at 10 to 30 mg/kg, IG measured after 7 days; format: organism-based; conditions: in vivo, po, 168 h, dose 10-30 mg/kg, time 7 day
[22] = Toxicity in C57BL/6 mouse model of scopolamine-induced Alzheimer's disease assessed as changes in swimming speed at 10 to 30 mg/kg, IG measured after 7 days; format: organism-based; conditions: in vivo, po, 168 h, dose 10-30 mg/kg, time 7 day
Mus musculus [23] = experiment: Anti-alzheimer activity against scopolamine-induced cognitive dysfunction C57BL/6 mouse model assessed as reduction in escape latency time administered intragastrically for 7 days followed by scopolamine stimulation and measured after 4 days by Morris water maze test; format: functional, organism-based; conditions: dose 10-30 mg/kg, route ig, time 11.0 day, DDE = dose-dependent effect
Mus musculus [24] = experiment: Anti-alzheimer activity against scopolamine-induced cognitive dysfunction C57BL/6 mouse model assessed as improvement in cognitive impairment by measuring increase in number of platform crossing at 30 mg/kg, IG administered for 7 days followed by scopolamine stimulation and measured after 4 days by Morris water maze test; format: functional, organism-based; conditions: time 11.0 day
Cholinesterase [25] = target: T1, Cholinesterase
Description: Inhibition of equine serum BuChE using butyrylthiocholine iodide as substrate preincubated for 20 mins followed by substrate addition and measured after 5 mins by DTNB-reagent based Ellman's method

cells = conditions: Mus musculus, BV-2
Description: Inhibition of NO production in LPS-induced mouse BV-2 cells pretreated for 1 hr followed by LPS stimulation and measured after 24 hrs by ELISA

in vitro [26] = conditions: dog, MDCK-MDR1
Description: Apparent permeability across apical to basolateral side in MDCKII-MDR1 cells at 75 uM incubated for 2 hrs

in vitro [27] = conditions: dog, MDCK-MDR1; remark: listed apart in the source
Description: Apparent permeability across basolateral to apical side in MDCKII-MDR1 cells at 75 uM incubated for 2 hrs

P-glycoprotein = experiment: in vitro; conditions: dog, MDCK-MDR1
Description: Substrate activity at P-glycoprotein in MDCKII-MDR1 cells assessed as efflux ratio apparent permeability across basolateral to apical side over apical to basolateral side at 75 uM incubated for 2 hrs

In the case of `O=C(CNc1ccc(F)cc1)Nc1ccc(-c2nc(-c3ccnc(Nc4ccc(OC(F)(F)F)cc4)c3)no2)cc1`, the IC50 (Acetylcholinesterase) is reported as greater than 50000 nM, the inhibition [1] is reported as “Active” and the Ki (Cholinesterase [2]) is reported as 610 nM. It also gave a viability at 5 µM (PC-12 [3]) of 46.5%, a viability at 20 µM (PC-12 [4]) of 66.4% and a viability at 24 h, 25 µM [5] of 99.7%. The viability at 24 h, 50 µM [6] was 98.8%, the inhibition [7] was “Active” and the IC50 [8] was 1610 nM. For the same compound, the IC50 [9] was 4150 nM, the Activity (BV-2 [10]) was “Dde” and the Activity (BV-2 [11]) was “Dde”. The inhibition [12] was “Dde”, the inhibition [13] was “Dde” and the inhibition [14] was “Active”. For the same compound, the inhibition (BV-2 [15]) was “Active”, the inhibition (PC-12 [16]) was “Active” and the inhibition (SH-SY5Y) was “Active”. For the same compound, the Activity [17] was 86.1%, the Activity [18] was 34.6% and the Activity [19] was “Active”. For the same compound, the LD50 at 168 h [20] was 75.4 mg/kg, the Activity [21] was “Non-Toxic” and the Activity [22] was “Non-Toxic”. For the same compound, the Activity (Mus musculus [23]) was “Dde”, the Activity (Mus musculus [24]) was “Active” and the IC50 (Cholinesterase [25]) was 1280 nM. For the same compound, the IC50 (cells) was 670 nM, the Papp A→B at 2 h, 75 µM (in vitro [26]) was 17.2 ×10⁻⁶ cm/s and the Papp B→A at 2 h, 75 µM (in vitro [27]) was 16.3 ×10⁻⁶ cm/s. It also gave an efflux ratio at 2 h, 75 µM (P-glycoprotein) of 0.95.
